Results: US20200262813A1, “1,5,7-TRISUBSTITUTED ISOQUINOLINE DERIVATIVES, PREPARATION THEREOF, AND USE THEREOF IN MEDICINES” (SHANGHAI HAIYAN PHARMACEUTICAL TECHNOLOGY CO., LTD., priority 2016, published 2020)

biological target: Recombinant PRC2 (EZH2-Y641F) (Homo sapiens, UniProt Q15910, Y641F); assay: In vitro methyltransferase activity test (LANCE Ultra); details: EZH2 Y641F IC50, Recombinant PRC2 (EZH2-Y641F), LANCE Ultra detection, 3 hours reaction;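 note: compounds tested as an 8-point threefold dilution series, fluorescence read after 1 h detection step at room temperature, IC50 derived from a four-parameter curve fit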
Sequence (Q15910 whole entry Y641F): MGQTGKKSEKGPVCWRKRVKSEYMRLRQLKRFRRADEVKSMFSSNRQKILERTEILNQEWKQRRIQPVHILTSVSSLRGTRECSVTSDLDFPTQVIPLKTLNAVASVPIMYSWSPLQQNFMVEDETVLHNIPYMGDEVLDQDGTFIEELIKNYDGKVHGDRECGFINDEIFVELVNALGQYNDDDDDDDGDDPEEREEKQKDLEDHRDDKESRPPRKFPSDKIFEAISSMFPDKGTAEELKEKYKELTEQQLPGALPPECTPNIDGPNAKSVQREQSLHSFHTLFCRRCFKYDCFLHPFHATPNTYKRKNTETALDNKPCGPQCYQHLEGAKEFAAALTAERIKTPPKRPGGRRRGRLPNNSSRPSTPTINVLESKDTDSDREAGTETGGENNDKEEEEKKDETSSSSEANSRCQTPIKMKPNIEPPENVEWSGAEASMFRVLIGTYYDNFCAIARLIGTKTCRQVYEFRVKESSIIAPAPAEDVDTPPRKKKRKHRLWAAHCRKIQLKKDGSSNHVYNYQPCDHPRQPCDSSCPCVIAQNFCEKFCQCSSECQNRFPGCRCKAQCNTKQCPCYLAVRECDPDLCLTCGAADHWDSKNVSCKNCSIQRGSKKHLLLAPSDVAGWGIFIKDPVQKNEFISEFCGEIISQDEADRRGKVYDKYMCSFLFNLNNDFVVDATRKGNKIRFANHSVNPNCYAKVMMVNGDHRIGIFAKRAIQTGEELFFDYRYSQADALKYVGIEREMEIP
Sequence (O75530 whole entry partner): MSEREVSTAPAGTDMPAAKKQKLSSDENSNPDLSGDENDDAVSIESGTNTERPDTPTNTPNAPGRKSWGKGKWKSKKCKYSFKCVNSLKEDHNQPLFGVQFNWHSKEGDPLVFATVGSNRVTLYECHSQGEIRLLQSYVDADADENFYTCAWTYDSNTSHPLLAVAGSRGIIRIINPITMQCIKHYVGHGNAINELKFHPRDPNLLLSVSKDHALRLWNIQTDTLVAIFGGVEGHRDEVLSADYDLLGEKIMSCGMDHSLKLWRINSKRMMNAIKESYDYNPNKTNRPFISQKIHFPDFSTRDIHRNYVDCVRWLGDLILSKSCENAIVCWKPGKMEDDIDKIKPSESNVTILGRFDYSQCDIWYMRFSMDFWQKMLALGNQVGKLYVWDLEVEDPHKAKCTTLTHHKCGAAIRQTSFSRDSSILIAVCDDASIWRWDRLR
Sequence (Q15022 whole entry partner): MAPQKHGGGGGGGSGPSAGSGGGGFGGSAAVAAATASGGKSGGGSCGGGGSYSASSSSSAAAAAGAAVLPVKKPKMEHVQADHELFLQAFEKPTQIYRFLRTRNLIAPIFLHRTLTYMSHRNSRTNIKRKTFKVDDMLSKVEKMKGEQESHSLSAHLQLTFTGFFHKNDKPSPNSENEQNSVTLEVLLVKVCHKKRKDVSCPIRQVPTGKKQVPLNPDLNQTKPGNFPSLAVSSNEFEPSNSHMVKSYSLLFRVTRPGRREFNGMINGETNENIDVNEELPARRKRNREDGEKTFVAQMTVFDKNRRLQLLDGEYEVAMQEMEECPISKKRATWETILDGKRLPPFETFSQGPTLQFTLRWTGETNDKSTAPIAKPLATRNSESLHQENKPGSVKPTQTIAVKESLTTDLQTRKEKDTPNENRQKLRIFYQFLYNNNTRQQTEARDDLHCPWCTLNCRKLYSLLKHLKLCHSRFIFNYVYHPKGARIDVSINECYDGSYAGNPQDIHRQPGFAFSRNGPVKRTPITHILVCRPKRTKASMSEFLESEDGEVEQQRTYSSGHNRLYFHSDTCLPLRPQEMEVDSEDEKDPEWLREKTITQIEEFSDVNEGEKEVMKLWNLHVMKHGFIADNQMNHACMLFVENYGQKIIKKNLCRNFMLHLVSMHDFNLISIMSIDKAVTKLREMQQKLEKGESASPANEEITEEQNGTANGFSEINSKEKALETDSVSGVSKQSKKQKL
Sequence (Q09028 whole entry partner): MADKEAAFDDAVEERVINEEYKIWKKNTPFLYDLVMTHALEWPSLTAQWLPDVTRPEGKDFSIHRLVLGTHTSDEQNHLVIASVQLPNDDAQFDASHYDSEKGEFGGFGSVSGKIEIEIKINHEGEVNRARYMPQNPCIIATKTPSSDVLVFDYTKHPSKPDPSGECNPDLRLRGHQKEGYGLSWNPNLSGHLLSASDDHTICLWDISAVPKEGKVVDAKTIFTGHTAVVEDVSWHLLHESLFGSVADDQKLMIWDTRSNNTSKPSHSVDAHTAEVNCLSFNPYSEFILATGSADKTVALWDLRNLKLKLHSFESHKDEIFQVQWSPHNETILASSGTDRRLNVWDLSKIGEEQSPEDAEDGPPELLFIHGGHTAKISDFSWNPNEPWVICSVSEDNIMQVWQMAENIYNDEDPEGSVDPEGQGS
Sequence (Q6ZN18 whole entry partner): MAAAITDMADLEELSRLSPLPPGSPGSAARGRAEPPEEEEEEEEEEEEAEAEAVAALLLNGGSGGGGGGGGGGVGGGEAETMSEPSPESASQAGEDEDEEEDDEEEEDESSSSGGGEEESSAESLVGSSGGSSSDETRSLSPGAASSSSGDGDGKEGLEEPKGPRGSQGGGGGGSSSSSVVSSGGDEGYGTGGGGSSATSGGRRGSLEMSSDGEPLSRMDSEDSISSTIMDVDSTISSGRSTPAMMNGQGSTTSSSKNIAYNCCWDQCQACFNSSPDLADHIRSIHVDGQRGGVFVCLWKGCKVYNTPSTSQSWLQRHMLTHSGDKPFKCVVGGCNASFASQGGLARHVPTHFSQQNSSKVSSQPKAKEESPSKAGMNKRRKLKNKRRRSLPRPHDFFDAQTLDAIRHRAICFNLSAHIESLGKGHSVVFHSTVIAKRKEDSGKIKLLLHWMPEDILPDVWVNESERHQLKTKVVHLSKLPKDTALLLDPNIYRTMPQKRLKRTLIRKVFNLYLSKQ
Procedure: In Vitro Methyltransferase Activity Test
Recombinant PRC2 (EZH2-Y641F) was purchased from Active motif, S-adenosyl-methionine (SAM) and Poly-L-lysine (PLL) were purchased from Sigma-Aldrich, H3(1-50)K27mel polypeptide was purchased from Cisbio. LANCEUltra system (Perkinelmer) was used for detection. In the enzyme activity test, a compound to be tested was 1:3 diluted for 8 gradient points, added into a reaction plate, and then added 100 ng recombinant enzyme. And then a buffer [20 mM Tris pH8.5, 2 mM MgCl2, 0.01% Tween-20, 1 mM TCEP] containing 2.5 M SAM/250 nM H3(1-50)K27mel premixture was added to conduct an enzyme reaction at room tempreture. After reacted for 3 hours, a dection solution containing premixed PLL, detection antibody and Ulight was added, reacted for 1 h at RT, then fluorescence was read on Tecan infinite pro. IC50s were calculated by four-factor model fitting in a XLfit software.

IC50 [µM] | Structure (SMILES)
0.422 | CCN(c1cc(-c2ccc(CN3CCOCC3)cc2)cc2c(NCc3c(C)cc(C)[nH]c3=O)nccc12)C1CCOCC1 [Compound Z-1]
0.186 | CCN(c1cc(Br)cc2c(NCc3c(C)cc(C)[nH]c3=O)nccc12)C1CCOCC1 [Compound Z-3, 3-((7-bromo-5-(ethyl (tetrahydro-2H-pyran-4-yl)amino)isoquinolin-1-ylamino)methyl)-4,6-dimethyl-2(1H)-one]
0.295 | CCN(c1cc(Cl)cc2c(NCc3c(C)cc(C)[nH]c3=O)nccc12)C1CCOCC1 [Compound Z-4, 3-((7-chloro-5-(ethyl (tetrahydro-2H-pyran-4-yl)amino)isoquinolin-1-ylamino)methyl)-4,6-dimethyl-2(1H)-one]
0.611 | CCN(c1cc(C#N)cc2c(NCc3c(C)cc(C)[nH]c3=O)nccc12)C1CCOCC1 [Compound Z-6, 1-((4,6-dimethyl-2-oxo-1,2-dihydropyridin-3-yl)methylamino)-5-(ethyl (tetrahydro-2H-pyran-4-yl)amino)isoquinoline-7-carbonitrile]
0.481 | CCN(c1cc(-c2cnn(C)c2)cc2c(NCc3c(C)cc(C)[nH]c3=O)nccc12)C1CCOCC1 [Compound Z-7, 3-((5-(ethyl (tetrahydro-2H-pyran-4-yl)amino)-7-(1-methyl-1H-pyrazol-4-yl)isoquinoline-1-ylamino)methyl)-4,6-dimethylpyridin-2(1H)-one]
0.086 | CCN(c1cc(-c2ccc(CN3CCNCC3)cc2)cc2c(NCc3c(C)cc(C)[nH]c3=O)nccc12)C1CCOCC1 [Compound Z-8, 3-((5-(ethyl (tetrahydro-2H-pyran-4-yl)amino)-7-(4-(piperazin-1-ylmethyl)phenyl)isoquinoline-1-ylamino)methyl)-4,6-dimethyl-2(1H)-one]
0.057 | CCN(c1cc(Cl)cc2c(NCc3c(C)cc(C)nc3O)nccc12)C1CC2CNCC2C1 (stereo not shown) [Compound Z-9, 3-((7-chloro-5-(ethyl (octahydrocyclopenta[c]pyrrol-5-yl)amino)isoquinolin-1-ylamino)methyl)-4,6-dimethylpyridine-2-ol]
0.092 | CCN(c1cc(C(F)(F)F)cc2c(NCc3c(C)cc(C)[nH]c3=O)nccc12)C1CCNCC1 [Compound Z-13, 3-((5-(ethyl (piperidin-4-yl)amino)-7-(trifluoromethyl)isoquinolin-1-ylamino)methyl)-4,6-dimethylpyridine-2(1H)-one]
0.426 | CCN(c1cc(-c2cn[nH]c2)cc2c(NCc3c(C)cc(C)[nH]c3=O)nccc12)C1CCOCC1 [Compound Z-14]
0.091 | CCN(c1cc(Br)cc2c(NCc3c(C)cc(C)[nH]c3=O)nccc12)C1CCC(N(C)C)CC1 (stereo not shown) [Compound Z-15, 3-((7-bromo-5-((4-(dimethylamino)cyclohexyl) (ethyl)amino)isoquinolin-1-ylamino)methyl)-4,6-dimethyl-2(1H)-one]
0.428 | CCN(c1cc(C(F)(F)F)cc2c(NCc3c(C)cc(C)[nH]c3=O)nccc12)C1CCOCC1 [Compound Z-16, 3-((5-(ethyl (tetrahydro-2H-pyran-4-yl)amino)-7-(trifluoromethyl)isoquinolin-1-ylamino)methyl)-4,6-dimethyl-2(1H)-one]
0.284 | CCN(c1cc(C(N)=O)cc2c(NCc3c(C)cc(C)[nH]c3=O)nccc12)C1CCOCC1 [Compound Z-18]
0.212 | CCN(c1cc(-c2ccc(CN3CCCCC3)cc2)cc2c(NCc3c(C)cc(C)[nH]c3=O)nccc12)C1CCOCC1 [Compound Z-23]
0.152 | CCN(c1cc(-c2ccc(N3CCN(C)CC3)nc2)cc2c(NCc3c(C)cc(C)[nH]c3=O)nccc12)C1CCOCC1 [Compound Z-24]
0.096 | CCN(CC)Cc1ccc(-c2cc(N(CC)C3CCOCC3)c3ccnc(NCc4c(C)cc(C)[nH]c4=O)c3c2)cc1 [Compound Z-27]
0.341 | CCN(c1cc(-c2ccc(N3CCOCC3)nc2)cc2c(NCc3c(C)cc(C)[nH]c3=O)nccc12)C1CCOCC1 [Compound Z-28]
0.157 | CCN(c1cc(-c2ccc(CN3CCN(C)CC3)cc2)cc2c(NCc3c(C)cc(C)[nH]c3=O)nccc12)C1CCOCC1 [Compound Z-29]
0.298 | CCN(c1cc(-c2ccc(CN(C)C)cc2)cc2c(NCc3c(C)cc(C)[nH]c3=O)nccc12)C1CCOCC1 [Compound Z-30]

IC50 [µM] | Structure (SMILES)
0.328 | CCN(c1cc(-c2ccc(CN3CCC[C@H](O)C3)cc2)cc2c(NCc3c(C)cc(C)[nH]c3=O)nccc12)C1CCOCC1 [Compound Z-31]
0.488 | CCN(c1cc(-c2ccc(NC3CCOCC3)cc2)cc2c(NCc3c(C)cc(C)[nH]c3=O)nccc12)C1CCOCC1 [Compound Z-32]
0.145 | CCN(c1cc(-c2ccc(CN3CCOCC3)cc2)cc2c(NCc3c(C)cc(C)[nH]c3=O)nccc12)C1CCC(NC(C)=O)CC1 (stereo not shown) [Compound Z-33]
0.138 | CCN(c1cc(-c2cnn(C)c2)cc2c(NCc3c(C)cc(C)[nH]c3=O)nccc12)[C@H]1CC[C@H](N(C)C)CC1 [Compound Z-38]
0.038 | CCN(c1cc(-c2ccc(CN3CCOCC3)cc2)cc2c(NCc3c(C)cc(C)[nH]c3=O)nccc12)C1CCC(N(C)C)CC1 (stereo not shown) [Compound Z-41]
0.303 | CCN(c1cc(-c2ccc(N3CCOCC3)nc2)cc2c(NCc3c(C)cc(C)[nH]c3=O)nccc12)C1CCC(NC(C)=O)CC1 (stereo not shown) [Compound Z-48]
0.026 | CCN(c1cc(-c2ccc(N3CCN(C)CC3)nc2)cc2c(NCc3c(C)cc(C)[nH]c3=O)nccc12)C1CCN(C)CC1 [Compound Z-50]
0.007 | CCN(c1cc(-c2ccc(N3CCN(C)CC3)nc2)cc2c(NCc3c(C)cc(C)[nH]c3=O)nccc12)C1CCNCC1 [Compound Z-56]
0.086 | CCN(c1cc(-c2ccc(N3CCN(C)CC3)nc2)cc2c(NCc3c(C)cc(C)[nH]c3=O)nccc12)C1CCN(C(C)=O)CC1 [Compound Z-57]
0.277 | CCN(c1cc(-c2ccc(N3CCOCC3)nc2)cc2c(NCc3c(C)cc(C)[nH]c3=O)nccc12)C1CCN(C(C)=O)CC1 [Compound Z-59]
0.321 | CCN(c1cc(-c2ccc(CN3CCOCC3)cc2)cc2c(NCc3c(C)cc(C)[nH]c3=O)nccc12)C1CCN(C(C)=O)CC1 [Compound Z-60]
0.012 | CCN(c1cc(C2=CCN(C)CC2)cc2c(NCc3c(C)cc(C)[nH]c3=O)nccc12)C1CCC(N(C)C)CC1 (stereo not shown) [Compound Z-61]
0.08 | CCN(c1cc(-c2cnc(N3CCOCC3)nc2)cc2c(NCc3c(C)cc(C)[nH]c3=O)nccc12)C1CCN(C(C)C)CC1 [Compound Z-62]
0.07 | CCN(c1cc(-c2cnc(N3CCN(C)CC3)nc2)cc2c(NCc3c(C)cc(C)[nH]c3=O)nccc12)C1CCN(C(C)C)CC1 [Compound Z-67]
0.15 | CCN(c1cc(-c2cccnc2)cc2c(NCc3c(C)cc(C)[nH]c3=O)nccc12)C1CCN(C(C)C)CC1 [Compound Z-68]
0.1 | CCN(c1cc(-c2ccc(CN3CCOCC3)nc2)cc2c(NCc3c(C)cc(C)[nH]c3=O)nccc12)C1CCN(C(C)C)CC1 [Compound Z-69]
0.128 | CCN(c1cc(-c2ccccc2)cc2c(NCc3c(C)cc(C)[nH]c3=O)nccc12)C1CCC(N(C)C)CC1 (stereo not shown) [Compound Z-75]
0.06 | CCN(c1cc(-c2ccc(N3CCN(C)CC3)nc2)cc2c(NCc3c(C)cc(C)[nH]c3=O)nccc12)C1CCN(CCF)CC1 [Compound Z-76]

same assay, conditions: read-out: EZH2 Y641F IC50; Recombinant PRC2 (EZH2-Y641F), LANCE Ultra detection, 3 hours reaction

Structure (SMILES) | IC50 [µM]
CCN(c1cc(C(N)=O)cc2c(NCc3c(C)cc(C)[nH]c3=O)nccc12)C1CCC(N(C)C)CC1 (stereo not shown) [Compound Z-21] | 0.205
